In the assay the target is T1, human KCNQ2 and KCNQ3 (Homo sapiens, UniProt O43525+O43526).
T1 construct: expressed in transfected cells; host or cells: HEK293
The experiment in a line: KCNQ 2/3 channel activation, thallium flux FLIPR assay (BTC-AM dye) in HEK293 cells. It is filed as cell-based. The note with it: for Emax: HEK293, maximum response relative to response of retigabine at 10 μM set at 100%, read-out: Max response; for EC50: HEK293 cells stably expressing human KCNQ2 and KCNQ3, compound incubated 4 minutes, Tl+ flux fluorescence. How it is done:
The following example describes the assay that can be used to identify compounds that activate KCNQ 2/3 channels.
HEK293 cells stably expressing human KCNQ2 and KCNQ3 were seeded in 96-well, black-walled, clear-bottomed, poly-D-lysine coated plates (BD Biosciences, Bedford, Mass.) at a density of 1×10^5 cells per well 24 hours before the assay. On the assay day, BTC-AM dye (Invitrogen, Carlsbad, Calif.) was loaded into the cells by replacing the cell culture medium with 100 μL/well of 4 μM dye in DPBS. Dye loading was allowed to proceed for 2 hours at room temperature and then cells were washed twice in 100 μL/well of assay buffer (in mM: 10 HEPES pH 7.3, 5 glucose, 140 Na-gluconate, 2.5 K-gluconate, 3.6 Ca-gluconate, 2 MgSO4, 0.1 Ouabain) to remove unloaded dye. Cells were incubated in 50 μL of assay buffer before loading onto a FLIPR system (Molecular Devices, Sunnyvale, Calif.). Various concentrations of compounds to be assayed were added to the cells in 50 μL of assay buffer and incubated for 4 minutes. The fluorescence signal was initiated by adding 100 μL of assay buffer containing 6 mM TlNO3 and 10 mM K2SO4. Fluors were excited using the 488-nm line of an argon laser and emission was filtered using a 540±30 nm bandpass filter. Fluorescent signals were recorded for 3 minutes. Responses over baseline values were plotted versus concentrations of test compounds to obtain an EC50 value. The maximum response for each test compound was determined relative to the response produced at 10 μM by retigabine. The maximum response of retigabine at 10 μM was set at 100%.

The record followed here is patent US8962639B2, “Potassium channel modulators” (AbbVie Inc., priority 2009, dated 2015).

A word on the EC50: it is the midpoint of the concentration-response curve. A higher EC50 goes with a less potent agent.

T1 sequence (O43526 whole entry): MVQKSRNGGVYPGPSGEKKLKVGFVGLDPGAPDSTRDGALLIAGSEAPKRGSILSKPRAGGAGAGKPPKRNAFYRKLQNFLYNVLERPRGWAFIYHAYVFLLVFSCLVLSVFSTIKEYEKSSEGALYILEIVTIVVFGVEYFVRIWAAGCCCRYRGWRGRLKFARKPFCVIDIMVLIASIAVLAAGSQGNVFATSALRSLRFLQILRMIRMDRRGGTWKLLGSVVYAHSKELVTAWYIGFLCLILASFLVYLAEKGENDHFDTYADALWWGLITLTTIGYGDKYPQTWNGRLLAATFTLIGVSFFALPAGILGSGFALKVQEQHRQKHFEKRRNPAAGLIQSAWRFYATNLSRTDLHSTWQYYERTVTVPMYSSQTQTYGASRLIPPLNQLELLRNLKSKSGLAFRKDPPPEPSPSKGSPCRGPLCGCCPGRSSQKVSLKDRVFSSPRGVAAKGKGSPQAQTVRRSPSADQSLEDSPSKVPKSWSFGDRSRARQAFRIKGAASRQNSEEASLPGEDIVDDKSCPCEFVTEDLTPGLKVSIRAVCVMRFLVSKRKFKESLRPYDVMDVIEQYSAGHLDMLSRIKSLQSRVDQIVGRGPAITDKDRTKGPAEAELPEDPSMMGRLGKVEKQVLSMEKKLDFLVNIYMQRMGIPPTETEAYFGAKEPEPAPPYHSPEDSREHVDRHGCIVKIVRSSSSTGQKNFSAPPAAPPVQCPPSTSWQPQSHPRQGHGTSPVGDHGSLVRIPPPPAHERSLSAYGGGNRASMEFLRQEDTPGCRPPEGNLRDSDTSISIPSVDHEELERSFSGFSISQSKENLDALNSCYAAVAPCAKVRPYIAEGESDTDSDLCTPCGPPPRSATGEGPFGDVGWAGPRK
T1 sequence (O43525 whole entry): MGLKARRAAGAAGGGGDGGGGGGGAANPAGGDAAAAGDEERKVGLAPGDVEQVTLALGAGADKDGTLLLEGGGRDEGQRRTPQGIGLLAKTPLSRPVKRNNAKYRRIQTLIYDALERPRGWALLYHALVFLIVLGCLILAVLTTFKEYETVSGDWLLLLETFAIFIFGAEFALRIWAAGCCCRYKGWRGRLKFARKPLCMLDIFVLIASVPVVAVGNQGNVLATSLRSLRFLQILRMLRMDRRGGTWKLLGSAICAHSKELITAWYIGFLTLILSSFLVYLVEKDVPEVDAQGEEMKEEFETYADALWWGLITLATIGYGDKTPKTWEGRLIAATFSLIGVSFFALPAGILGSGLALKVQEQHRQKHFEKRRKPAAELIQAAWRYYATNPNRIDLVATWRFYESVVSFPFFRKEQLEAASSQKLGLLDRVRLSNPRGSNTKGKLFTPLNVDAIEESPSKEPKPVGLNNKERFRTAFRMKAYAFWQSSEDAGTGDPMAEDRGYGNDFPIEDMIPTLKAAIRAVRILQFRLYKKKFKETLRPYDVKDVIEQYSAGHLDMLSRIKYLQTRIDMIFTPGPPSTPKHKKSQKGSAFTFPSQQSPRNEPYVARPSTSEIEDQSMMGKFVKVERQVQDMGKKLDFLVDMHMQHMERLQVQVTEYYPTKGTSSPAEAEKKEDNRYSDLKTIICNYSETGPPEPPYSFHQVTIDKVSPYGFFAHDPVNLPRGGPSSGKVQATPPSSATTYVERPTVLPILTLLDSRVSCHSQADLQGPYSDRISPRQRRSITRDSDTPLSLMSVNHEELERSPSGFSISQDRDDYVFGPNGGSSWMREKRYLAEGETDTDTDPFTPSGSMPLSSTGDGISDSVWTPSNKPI

As for `Cc1nc2cc(Cl)ccc2c(=O)n1NC(=O)CC12CC3CC(CC(C3)C1)C2` [Example 35, 2-(1-adamantyl)-N-(7-chloro-2-methyl-4-oxoquinazolin-3(4H)-yl)acetamide], the Emax was determined as 20.8% and the EC50 was more than 30000 nM.

Consider `Cc1nc2sc3c(c2c(=O)n1NC(=O)CC12CC4CC(CC(C4)C1)C2)CCCCC3` [Example 48, 2-(1-adamantyl)-N-(2-methyl-4-oxo-6,7,8,9-tetrahydro-4H-cyclohepta[4,5]thieno[2,3-d]pyrimidin-3(5H)-yl)acetamide], for which the Emax amounted to 89.8% and a half-maximal response (EC50) required 10900 nM.

With `O=C(CCC12CC3CC(CC(C3)C1)C2)Nn1c(-c2ccccc2)nc2ccccc2c1=O` [Example 15, 3-(1-adamantyl)-N-(4-oxo-2-phenylquinazolin-3(4H)-yl)propanamide], the Emax was 79.7% and the concentration giving a half-maximal response (EC50) worked out at 309 nM.

For the compound `O=C(CCC1CCCC1)Nn1c(C23CC4CC(CC2C4)C3)nc2ccccc2c1=O` [Example 3, 3-cyclopentyl-N-(2-hexahydro-2,5-methanopentalen-3a(1H)-yl-4-oxoquinazolin-3(4H)-yl)propanamide], the Emax was 171% and a half-maximal response (EC50) required 277 nM.

In the case of `CCc1nc2ccccc2c(=O)n1NC(=O)CC12CC3CC(CC(C3)C1)C2` [Example 9, 2-(1-adamantyl)-N-(2-ethyl-4-oxoquinazolin-3(4H)-yl)acetamide], the Emax was found to be 124% and the EC50 amounted to 115 nM.

On to `CC(C)c1nc2ccccc2c(=O)n1NC(=O)[C@@H]1C[C@@H]2CC[C@H]1C2` (racemic) [Example 22, (±)-endo-N-(2-isopropyl-4-oxoquinazolin-3(4H)-yl)bicyclo[2.2.1]heptane-2-carboxamide], for which the Emax came to 124% and it took 404 nM to reach a half-maximal effect (EC50).

Take `CC(C)c1nc2ccccc2c(=O)n1NC(=O)[C@H]1C[C@@H]2C=C[C@H]1C2` (racemic) [Example 32, (±)-(exo)-N-(2-isopropyl-4-oxoquinazolin-3(4H)-yl)bicyclo[2.2.1]hept-5-ene-2-carboxamide]: the Emax came to 99.2% and the response was half-maximal at 2230 nM (EC50).

As for `Cc1nc2sccc2c(=O)n1NC(=O)CC12CC3CC(CC(C3)C1)C2` [Example 17, 2-(1-adamantyl)-N-(2-methyl-4-oxothieno[2,3-d]pyrimidin-3(4H)-yl)acetamide], the Emax turned out to be 61.1% and the EC50 worked out at 2500 nM.

With `CC(C)c1nc2ccccc2c(=O)n1NC(=O)CC1CC2CCC1C2` (racemic) [Example 11, (±)-exo-2-bicyclo[2.2.1]hept-2-yl-N-(2-isopropyl-4-oxoquinazolin-3(4H)-yl)acetamide], the response was half-maximal at 90.6 nM (EC50). In addition, the Max response (maximum response relative to response of retigabine at 10 μM set at 100%) amounted to 175%.

In the case of `Cc1sc2nc(C)n(NC(=O)CC34CC5CC(CC(C5)C3)C4)c(=O)c2c1C` [Example 49, 2-(1-adamantyl)-N-(2,5,6-trimethyl-4-oxothieno[2,3-d]pyrimidin-3(4H)-yl)acetamide], the Emax was 65.2% and a half-maximal effect (EC50) was put at 779 nM.

For `O=C(CC12CC3CC(CC(C3)C1)C2)Nn1cnc2ccccc2c1=O` [Example 7, 2-(1-adamantyl)-N-(4-oxoquinazolin-3(4H)-yl)acetamide], the Emax stood at 133% and a half-maximal response (EC50) required 116 nM.

On to `CCc1nc2ccccc2c(=O)n1NC(=O)CC1C2CCCC1CCC2` (stereo not drawn) [Example 57, 2-bicyclo[3.3.1]non-9-yl-N-(2-ethyl-4-oxoquinazolin-3(4H)-yl)acetamide], for which the Emax was 148% and the 50% effective concentration (EC50) stood at 344 nM.

Consider `O=C(CC12CC3CC(CC(Cl)(C3)C1)C2)Nn1c(C2CC2)nc2cc(F)ccc2c1=O` [Example 53], for which the Emax worked out at 116% and the midpoint of the response, the EC50, lay at 250 nM.

Consider `CC(C)c1nc2ccccc2c(=O)n1NC(=O)CC1C2CCCC1CCC2` (stereo not drawn) [Example 56, 2-bicyclo[3.3.1]non-9-yl-N-(2-isopropyl-4-oxoquinazolin-3(4H)-yl)acetamide], for which the Emax came out at 158% and the concentration for a half-maximal effect (EC50) came to 104 nM.

Consider `CCc1nc2sccc2c(=O)n1NC(=O)CC1CC2CCC1C2` (racemic) [Example 24, (±)-exo-2-bicyclo[2.2.1]hept-2-yl-N-(2-ethyl-4-oxothieno[2,3-d]pyrimidin-3(4H)-yl)acetamide], for which the Emax came out at 158% and the concentration giving a half-maximal response (EC50) is 1130 nM.

In the case of `CCc1nc2sccc2c(=O)n1NC(=O)CC12CC3CC(CC(Cl)(C3)C1)C2` [Example 52, 2-[3-chloro-1-adamantyl]-N-(2-ethyl-4-oxothieno[2,3-d]pyrimidin-3(4H)-yl)acetamide], the Emax stood at 109% and the concentration for a half-maximal effect (EC50) came to 7910 nM.

On to `CC(C)c1nc2cc(-c3ccccc3F)sc2c(=O)n1NC(=O)CC1CC2CCC1C2` (racemic) [Example 41, (±)-2-[(exo)-bicyclo[2.2.1]hept-2-yl]-N-[6-(2-fluorophenyl)-2-isopropyl-4-oxothieno[3,2-d]pyrimidin-3(4H)-yl]acetamide], for which the Emax was found to be 17% and the EC50 is more than 30000 nM.

On to `CC(C)c1nc2ccccc2c(=O)n1NC(=O)CC1CC2C=CC1C2` (racemic) [Example 18, (±)-endo-2-bicyclo[2.2.1]hept-5-en-2-yl-N-(2-isopropyl-4-oxoquinazolin-3(4H)-yl)acetamide], for which the Emax worked out at 163% and it took 747 nM to reach a half-maximal effect (EC50).

Take `O=C(C[C@H]1C[C@@H]2CC[C@H]1C2)Nn1c(C2CC2)nc2cc(F)ccc2c1=O` (racemic) [Example 61, (±)-2-[(exo)-bicyclo[2.2.1]hept-2-yl]-N-(2-cyclopropyl-7-fluoro-4-oxoquinazolin-3(4H)-yl)acetamide]: the Emax was found to be 145% and the concentration for a half-maximal effect (EC50) was 30.7 nM.

On to `Cc1nc2sc3c(c2c(=O)n1NC(=O)CC12CC4CC(CC(C4)C1)C2)CCCC3` [Example 44, 2-(1-adamantyl)-N-(2-methyl-4-oxo-5,6,7,8-tetrahydro[1]benzothieno[2,3-d]pyrimidin-3(4 H)-yl)acetamide], for which the Emax was 81.8% and the midpoint of the response, the EC50, lay at 2010 nM.

For `Cc1nc2ccccc2c(=O)n1NC(=O)CC12CC3CC(CC(C3)C1)C2` [Example 8, 2-(1-adamantyl)-N-(2-methyl-4-oxoquinazolin-3(4H)-yl)acetamide], the Emax came out at 108% and the EC50 came to 684 nM.

In the case of `O=C(C[C@@H]1C[C@@H]2C=C[C@H]1C2)Nn1c(-c2ccccc2)nc2ccccc2c1=O` (racemic) [Example 19, (±)-endo-2-bicyclo[2.2.1]hept-5-en-2-yl-N-(4-oxo-2-phenylquinazolin-3(4H)-yl)acetamide], the Emax was determined as 130% and the EC50 was determined as 2280 nM.

Take `CCc1nc2ccccc2c(=O)n1NC(=O)C[C@@H]1C[C@@H]2CC[C@@H](C2)C1` [Example 55, endo 2-[bicyclo[3.2.1]oct-3-yl]-N-(2-ethyl-4-oxoquinazolin-3(4H)-yl)acetamide]: the Emax came out at 150% and a half-maximal response (EC50) required 417 nM.

As for `CCc1nc2ccccc2c(=O)n1NC(=O)CC1CC2CCC1C2` (racemic) [Example 43, (±)-2-[(endo)-bicyclo[2.2.1]hept-2-yl]-N-(2-ethyl-4-oxoquinazolin-3(4 H)-yl)acetamide], the Emax was determined as 150% and the midpoint of the response, the EC50, lay at 386 nM.

Regarding `Cc1cc2c(=O)n(NC(=O)CC34CC5CC(CC(C5)C3)C4)c(C)nc2s1` [Example 47, 2-(1-adamantyl)-N-(2,6-dimethyl-4-oxothieno[2,3-d]pyrimidin-3(4H)-yl)acetamide], the Emax worked out at 56.7% and the EC50 was 652 nM.

As to `CC(C)c1nc2ccccc2c(=O)n1NC(=O)C[C@@H]1C[C@@H]2CC(=O)C[C@@H](C2)C1` [Example 60], the Emax was determined as 58% and the EC50 is more than 31600 nM.

For the compound `CC(C)Sc1nc2sc(-c3ccccc3)cc2c(=O)n1NC(=O)CC12CC3CC(CC(C3)C1)C2` [Example 40, 2-(1-adamantyl)-N-[2-(isopropylthio)-4-oxo-6-phenylthieno[2,3-d]pyrimidin-3(4H)-yl]acetamide], the Emax was 19.2% and the EC50 is more than 30000 nM.

Consider `Cc1sc2nc(C)n(NC(=O)CC34CC5CC(CC(C5)C3)C4)c(=O)c2c1-c1ccccc1` [Example 46, 2-(1-adamantyl)-N-(2,6-dimethyl-4-oxo-5-phenylthieno[2,3-d]pyrimidin-3(4H)-yl)acetamide], for which the Emax is 130% and the midpoint of the response, the EC50, lay at 454 nM.

For `O=C(CC12CC3CC(CC(C3)C1)C2)Nn1cnc2scc(-c3ccc(F)cc3)c2c1=O` [Example 27, 2-(1-adamantyl)-N-[5-(4-fluorophenyl)-4-oxothieno[2,3-d]pyrimidin-3(4H)-yl]acetamide], the Emax is 199% and the EC50 was 846 nM.

As for `O=C(Nn1c(-c2ccccc2)nc2ccccc2c1=O)[C@@H]1[C@H]2[C@@H]3CC[C@@H](C3)[C@@H]12` [Example 39, (exo,exo)-N-(4-oxo-2-phenylquinazolin-3(4H)-yl)tricyclo[3.2.1.0^2,4]octane-3-carboxamide], the Emax was -23.5% and the concentration for a half-maximal effect (EC50) was more than 30000 nM.
